In patent US8614205B2, “Glutamate receptor modulators and therapeutic agents” (priority 2009, dated 2013):
Several values for one entry are separate records, joined by “and”; a condition that tells them apart may be missing. Equal entries are not always repeated. Where two headings read alike, the source gives them in different places. Each block holds one compound with its values, some of them ahead of it.

How the values were obtained:
[1] = molecular target: T1, mGluR5 (Homo sapiens, UniProt P41594); assay: aequorin calcium assay, negative allosteric modulation of mGluR5; assay type: cell-based
T1 construct: expression induced with doxycycline
T1 sequence (P41594 21-1212): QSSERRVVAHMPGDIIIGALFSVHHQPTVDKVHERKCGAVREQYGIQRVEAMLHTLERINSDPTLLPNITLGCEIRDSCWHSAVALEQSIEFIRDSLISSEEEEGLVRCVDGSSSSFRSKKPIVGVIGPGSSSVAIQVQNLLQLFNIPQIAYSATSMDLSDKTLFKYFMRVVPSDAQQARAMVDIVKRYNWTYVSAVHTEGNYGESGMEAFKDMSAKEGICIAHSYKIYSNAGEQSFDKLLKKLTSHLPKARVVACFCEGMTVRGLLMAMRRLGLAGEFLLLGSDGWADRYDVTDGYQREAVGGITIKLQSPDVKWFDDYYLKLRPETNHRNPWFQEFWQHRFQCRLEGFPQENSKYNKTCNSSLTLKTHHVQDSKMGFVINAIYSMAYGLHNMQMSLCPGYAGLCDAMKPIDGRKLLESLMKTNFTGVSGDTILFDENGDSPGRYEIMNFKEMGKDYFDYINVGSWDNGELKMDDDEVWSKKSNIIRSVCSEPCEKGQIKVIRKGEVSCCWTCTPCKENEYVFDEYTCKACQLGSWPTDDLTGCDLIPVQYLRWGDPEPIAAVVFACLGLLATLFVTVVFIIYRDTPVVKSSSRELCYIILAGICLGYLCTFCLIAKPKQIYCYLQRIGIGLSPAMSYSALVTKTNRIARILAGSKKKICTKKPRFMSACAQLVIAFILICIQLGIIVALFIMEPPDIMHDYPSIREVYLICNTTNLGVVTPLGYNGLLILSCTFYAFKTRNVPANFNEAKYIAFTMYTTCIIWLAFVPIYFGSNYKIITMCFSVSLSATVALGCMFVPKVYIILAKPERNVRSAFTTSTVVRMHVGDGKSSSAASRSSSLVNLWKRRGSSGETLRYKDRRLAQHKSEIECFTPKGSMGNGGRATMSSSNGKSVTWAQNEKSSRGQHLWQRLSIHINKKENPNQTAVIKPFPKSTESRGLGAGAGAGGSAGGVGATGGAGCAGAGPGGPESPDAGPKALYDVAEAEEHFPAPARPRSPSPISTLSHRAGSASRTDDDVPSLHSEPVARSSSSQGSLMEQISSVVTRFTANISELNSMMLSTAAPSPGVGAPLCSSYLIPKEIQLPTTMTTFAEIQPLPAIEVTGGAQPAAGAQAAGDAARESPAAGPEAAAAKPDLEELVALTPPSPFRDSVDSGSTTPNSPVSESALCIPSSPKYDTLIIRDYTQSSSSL
Procedure: (§1) The ability of test compound to ameliorate the efflux of calcium cations (Ca^++) in the presence of agonist (glutamate or quisqualate) is measured by detection of light emitted by the luminescent protein aequorin triggered by binding of Ca^++. Aequorin is a photoprotein isolated from luminescent jellyfish (like various Aequorea species e.g. Aequorea victoria). Aequorin is composed of two distinct units, the apoprotein apoaequorin, with an approximate molecular weight of 22 kDa, and the prosthetic group, coelenterazine, responsible for emission of light. In the presence of molecular oxygen the two components of aequorin assemble spontaneously, forming the functional protein. Four EF-hand type regions have been identified in the structure of Aequorin and at least 3 of them function as binding sites for Ca+2 ions: Ca+2 binding to these EF hands triggers a conformational change of the protein, that leads it to oxidize its prosthetic group, coelenterazine, into excited coelenteramide and CO2. As the excited coelenteramide relaxes to the ground state, blue light (wavelength=469 nm) is emitted and can be measured by a luminometer. Negative allosteric modulator activity of test compound is expressed as a percentage of the stimulation of reference agonist (glutamate) activity at its EC80 concentration. Assay of Compounds was performed at Euroscreen SA, Gosselies, Belgium.
(§2) Cells stably transfected with mGlu1 or mGlu5 were grown 18 hours prior to the test in culture medium containing 600 ng/ml doxycycline, then were detached by gentle flushing with PBS-EDTA, recovered by centrifugation and resuspended in “assay buffer” (HBSS, 2.1 mM CaCl2, 3 μg/ml GPT (Glutamate-Pyruvate transaminase), 4 mM MEM Sodium Pyruvate, 0.1% BSA, protease free). Cells were incubated at room temperature for at least 4 h with coelenterazine-h. Dose response curves were performed using mGluR1 cells with the orthosteric agonist glutamate and negative allosteric modulator JNJ16259685. Dose response curves were performed using mGluR5 cells with the orthosteric agonist glutamate and negative allosteric modulator MPEP. For agonist testing, 30 μl of cell suspension were mixed with 30 μl of test compound or reference agonist in a 384-well plate. The resulting emission of light was recorded using the Hamamatsu Functional Drug Screening System 6000 (FDSS 6000). For negative allosteric modulator testing, 60 μl of the resulting cell suspension containing the test compound was mixed with 30 μl of the reference agonist at EC80 following an incubation of 3 min after the first injection. The resulting emission of light was recorded using FDSS 6000. […] Plates also contained the reference agonist at a concentration equivalent to the EC80 obtained during the test validation. Negative allosteric modulator activity of test compound was expressed as a percentage of the stimulation of reference agonist activity at its EC80 concentration.

[2] = molecular target: T2, mGluR1 (Homo sapiens, UniProt Q13255); assay: aequorin calcium assay, negative allosteric modulation of mGluR1; assay type: cell-based; conditions: thiazole derivatives of benzamide, in vitro activity; read-out: binding at mGluR1
T2 construct: expression induced with doxycycline
T2 sequence (Q13255 19-1194): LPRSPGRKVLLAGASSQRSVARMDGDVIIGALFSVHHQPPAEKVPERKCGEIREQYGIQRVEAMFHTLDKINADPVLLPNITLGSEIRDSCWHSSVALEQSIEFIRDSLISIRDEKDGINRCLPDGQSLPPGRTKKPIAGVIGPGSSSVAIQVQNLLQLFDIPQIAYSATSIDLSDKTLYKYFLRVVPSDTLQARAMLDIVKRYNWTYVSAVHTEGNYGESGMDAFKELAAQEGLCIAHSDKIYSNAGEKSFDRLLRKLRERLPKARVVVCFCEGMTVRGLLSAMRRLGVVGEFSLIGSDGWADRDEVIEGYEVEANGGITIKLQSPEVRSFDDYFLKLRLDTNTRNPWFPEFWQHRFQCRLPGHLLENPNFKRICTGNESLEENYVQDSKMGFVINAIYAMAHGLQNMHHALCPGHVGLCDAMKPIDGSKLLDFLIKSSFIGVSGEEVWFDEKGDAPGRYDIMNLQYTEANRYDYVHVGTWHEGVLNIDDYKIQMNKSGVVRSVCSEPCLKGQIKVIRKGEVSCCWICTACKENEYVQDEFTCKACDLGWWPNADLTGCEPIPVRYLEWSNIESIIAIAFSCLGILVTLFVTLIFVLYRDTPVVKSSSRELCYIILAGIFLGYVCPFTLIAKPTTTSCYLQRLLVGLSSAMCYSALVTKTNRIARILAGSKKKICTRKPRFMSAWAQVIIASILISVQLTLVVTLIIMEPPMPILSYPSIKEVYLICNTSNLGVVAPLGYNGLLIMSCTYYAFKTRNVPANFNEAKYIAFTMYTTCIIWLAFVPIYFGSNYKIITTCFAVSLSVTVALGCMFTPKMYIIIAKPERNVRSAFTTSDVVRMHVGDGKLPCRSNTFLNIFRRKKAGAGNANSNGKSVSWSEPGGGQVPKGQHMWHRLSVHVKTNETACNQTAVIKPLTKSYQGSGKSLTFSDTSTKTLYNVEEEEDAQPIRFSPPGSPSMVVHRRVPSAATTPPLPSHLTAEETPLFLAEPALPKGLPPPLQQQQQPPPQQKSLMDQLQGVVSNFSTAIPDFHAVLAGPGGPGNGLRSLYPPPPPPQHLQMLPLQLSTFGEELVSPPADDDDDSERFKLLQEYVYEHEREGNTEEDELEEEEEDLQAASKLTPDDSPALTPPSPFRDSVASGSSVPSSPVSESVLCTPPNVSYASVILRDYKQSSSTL

[3] = molecular target: T2, mGluR1; assay: as above; assay type: cell-based; conditions: aequorin assay, agonist at EC80; 10000 = no activity observed at 10,000 nM
Procedure: as §1, §2

[4] = system: hyperalgesia in partial sciatic nerve ligation rat; assay: partial sciatic nerve ligation (PSN) model of neuropathic pain, paw withdrawal method; assay type: in vivo; set-up: AUC (0-5): unit not given beside the values; conditions: for % MPE (0-100) 1 hr / Paw withdrawal thresholds (g; raw data) 1 hr / Raw MPE (%) 1 hr / % MPE (0-100) 3 hrs / Paw withdrawal thresholds (g; raw data) 3 hrs / Raw MPE (%) 3 hrs / % MPE (0-100) 5 hrs / Paw withdrawal thresholds (g; raw data) 5 hrs / Raw MPE (%) 5 hrs / % MPE (0-100) 24 hrs / Paw withdrawal thresholds (g; raw data) 24 hrs / Raw MPE (%) 24 hrs / AUC (0-5): PSN Sx rat
Procedure: Briefly, under gas anesthesia, the skin and muscles of the thigh were reflected to expose the sciatic nerve. About one-third to one-half of the cross-sectional area of the nerve was tightly ligated using a 7-0 nylon suture. The incision was closed in layers (suture for muscle, surgical adhesive for skin). […] Treated rats were assayed at 1, 3, 5, and 24 hr using the paw withdrawal method (L. Randall and J. Selitto, 1957, Arch. Int. Pharmacodynam., 111:409-19). […] The Partial sciatic nerve ligation assay was performed at Eurofins/Product Safety Laboratories (Dayton, N.J.).
Animals were housed in cages which conform to the size recommendations in the most recent NIH Guide for the Care and Use of Laboratory Animals. […] The animals were fed Purina Rodent Chow #5012. The animals were acclimated to the facility for 7 days prior to the study. A pre-operative baseline paw withdrawal measure was collected for all rats. […] After recovery, a pre-dosing baseline paw withdrawal threshold was collected for all rats. […] Rats were lightly anesthetized and treated with test article or vehicle. Paw withdrawal thresholds were determined at one, three, five, and 24 hours post dosing. […] Briefly, under gas anesthesia, the skin and muscles of the thigh were reflected to expose the sciatic nerve. About one third to one half of the cross-sectional area of the nerve was tightly ligated using a 7-0 nylon suture. The incision was closed in layers (suture for muscle, surgical adhesive for skin). Test article or vehicle was administered by transcutaneous injection (C. Mestre et al., 1994, J. Pharm. Tox. Meth., 32:197-200). Briefly, the rat was lightly anesthetized and placed to flex the lower lumbar vertebrae. After palpating the vertebral processes, a 26 gauge needle was inserted through a vertebral interspace. The presence of a tail flick was considered validation of the needle placement; the solution was then injected. Paw withdrawal thresholds were assessed using a paw pressure device (L. O. Randall & J. J. Selitto, 1957, Arch. Int. Pharmacodyn., 111:409-19). The behavioral endpoint was defined as paw withdrawal. Data was analyzed by two-way analysis of variance (repeated measures) with Bonferroni tests at individual time points. Paw withdrawal threshold raw values were used for the analysis, and each route of administration was analyzed separately. Vehicle-treated groups were used as the statistical comparison groups.

[5] = thiazole derivatives of benzamide, in vitro activity, read-out: binding at mGluR5
[6] = 10 μg intrathecal, group Average (N 6)
[7] = 10 μg intrathecal, individual rat, listed as SND 121
[8] = 49 μg intrathecal, group Average (N 6)
[9] = 49 μg intrathecal, individual rat, listed as SND 121

EC50 [1, 5]: 2760 nM
EC50 [2]: 6320 nM
Structure (SMILES): CC(=O)Oc1ccc(Cl)cc1C(=O)Nc1nc([N+](=O)[O-])cs1

EC50 [1, 5]: 1250 nM
EC50 [2]: 1760 nM
Structure (SMILES): O=C(Nc1nc([N+](=O)[O-])cs1)c1cc(Cl)ccc1O

EC50 [3]: 38 nM
EC50 ([1]; aequorin assay, agonist at EC80, 10000 = no activity observed at 10,000 nM, read-out: mGluR5 EC50): 62 nM
Structure (SMILES): O=C(Nc1ccc([N+](=O)[O-])cc1Cl)c1cc(Cl)ccc1O [Compound 1, 5-Chloro-N-(2-chloro-4-nitrophenyl)-2-hydroxybenzamide]
% MPE (0-100) 1 hr [4, 6]: 29.7%
Paw withdrawal thresholds (g; raw data) 1 hr [4, 6]: 125.8 g
Raw MPE (%) 1 hr [4, 6]: 31.3%
% MPE (0-100) 1 hr [4, 7]: 0.0% (3×) and 6.7% and 100.0% and 71.5%
Paw withdrawal thresholds (g; raw data) 1 hr [4, 7]: 90 g (2×) and 60 g and 105 g and 250 g and 160 g
Raw MPE (%) 1 hr [4, 7]: −10.9% (2×) and 6.7% and 177.6% and 71.5%
% MPE (0-100) 3 hrs [4, 6]: 39.9%
Paw withdrawal thresholds (g; raw data) 3 hrs [4, 6]: 130.0 g
Raw MPE (%) 3 hrs [4, 6]: 41.8%
% MPE (0-100) 3 hrs [4, 7]: 41.8% and 27.5% and 0.0% (2×) and 100.0% and 70.3%
Paw withdrawal thresholds (g; raw data) 3 hrs [4, 7]: 130 g and 120 g and 100 g (2×) and 180 g and 150 g
Raw MPE (%) 3 hrs [4, 7]: 41.8% and 27.5% and −1.0% (2×) and 113.1% and 70.3%
% MPE (0-100) 5 hrs [4, 6]: 34.7%
Paw withdrawal thresholds (g; raw data) 5 hrs [4, 6]: 122.5 g
Raw MPE (%) 5 hrs [4, 6]: 33.6%
% MPE (0-100) 5 hrs [4, 7]: 30.3% (2×) and 0.0% and 43.6% and 100.0% and 3.8%
Paw withdrawal thresholds (g; raw data) 5 hrs [4, 7]: 120 g (2×) and 70 g and 130 g and 195 g and 100 g
Raw MPE (%) 5 hrs [4, 7]: 30.3% (2×) and −36.0% and 43.6% and 129.9% and 3.8%
% MPE (0-100) 24 hrs [4, 6]: 28.6%
Paw withdrawal thresholds (g; raw data) 24 hrs [4, 6]: 117.5 g
Raw MPE (%) 24 hrs [4, 6]: 33.9%
% MPE (0-100) 24 hrs [4, 7]: 44.5% and 16.2% and 2.0% and 9.1% and 100.0% and 0.0%
Paw withdrawal thresholds (g; raw data) 24 hrs [4, 7]: 125 g and 105 g and 95 g and 100 g and 195 g and 85 g
Raw MPE (%) 24 hrs [4, 7]: 44.5% and 16.2% and 2.0% and 9.1% and 143.7% and −12.1%
AUC (0-5) [4, 6]: 159.1
AUC (0-5) [4, 7]: 113.9 and 85.3 and 0.0 and 53.7 and 450.0 and 251.7
% MPE (0-100) 1 hr [4, 8]: 80.7%
Paw withdrawal thresholds (g; raw data) 1 hr [4, 8]: 199.2 g
Raw MPE (%) 1 hr [4, 8]: 117.7%
% MPE (0-100) 1 hr [4, 9]: 100.0% (4×) and 48.0% and 36.2%
Paw withdrawal thresholds (g; raw data) 1 hr [4, 9]: 250 g (2×) and 190 g and 140 g and 130 g and 235 g
Raw MPE (%) 1 hr [4, 9]: 177.6% (2×) and 106.9% and 48.0% and 36.2% and 159.9%
% MPE (0-100) 3 hrs [4, 8]: 54.2%
Paw withdrawal thresholds (g; raw data) 3 hrs [4, 8]: 163.3 g
Raw MPE (%) 3 hrs [4, 8]: 89.3%
% MPE (0-100) 3 hrs [4, 9]: 100.0% (2×) and 70.3% and 0.0% and 41.8% and 13.2%
Paw withdrawal thresholds (g; raw data) 3 hrs [4, 9]: 250 g (2×) and 150 g and 90 g and 130 g and 110 g
Raw MPE (%) 3 hrs [4, 9]: 212.9% (2×) and 70.3% and −15.3% and 41.8% and 13.2%
% MPE (0-100) 5 hrs [4, 8]: 31.8%
Paw withdrawal thresholds (g; raw data) 5 hrs [4, 8]: 119.2 g
Raw MPE (%) 5 hrs [4, 8]: 29.2%
% MPE (0-100) 5 hrs [4, 9]: 100.0% and 43.6% (2×) and 3.8% and 0.0% (2×)
Paw withdrawal thresholds (g; raw data) 5 hrs [4, 9]: 180 g and 130 g (2×) and 100 g and 80 g and 95 g
Raw MPE (%) 5 hrs [4, 9]: 110.0% and 43.6% (2×) and 3.8% and −22.7% and −2.8%
% MPE (0-100) 24 hrs [4, 8]: 1.5%
Paw withdrawal thresholds (g; raw data) 24 hrs [4, 8]: 84.2 g
Raw MPE (%) 24 hrs [4, 8]: −13.3%
% MPE (0-100) 24 hrs [4, 9]: 0.0% (5×) and 9.1%
Paw withdrawal thresholds (g; raw data) 24 hrs [4, 9]: 90 g (3×) and 55 g and 100 g and 80 g
Raw MPE (%) 24 hrs [4, 9]: −5.1% (3×) and −54.6% and 9.1% and −19.2%
AUC (0-5) [4, 8]: 261.3
AUC (0-5) [4, 9]: 450.0 and 334.2 and 153.8 and 155.5 and 80.8 and 393.6
effectiveness in model of hyperalgesia vs 100 μg gabapentin ([4]; 49 μg intrathecal, rat): considerably more effective
reversing hyperalgesia, compared to gabapentin ([4]; 10 or 49 μg intrathecal vs 100 μg gabapentin, rat): essentially as effective or more effective as gabapentin
